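Five concentrations, 48 hours, 96-well plates. The concentration for 50% growth inhibition is given as GI50.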 Activity calls are given as the source filed them. Rule as the data show it: active = GI50 up to about 1.1 µM and inactive = higher. Where a SMILES comes first, the peptide text is derived from it. The star is where a group is joined. Boc = CC(C)(C)OC(=O)*; Bn = c1ccc(C*)cc1
Experiments:
Assay in all cases: inhibition of tumour cell growth, NCI panel, 48 h
786-0 = system: 786-0
ACHN = system: ACHN
HOP-62 = system: HOP-62
HOP-92 = system: HOP-92
HT-29 = system: HT-29
LXFL 529 = system: LXFL 529
Malme-3M = system: Malme-3M
NCI-H226 = system: NCI-H226
OVCAR-4 = system: OVCAR-4
OVCAR-5 = system: OVCAR-5
SF-268 = system: SF-268
SF-295 = system: SF-295
SK-MEL-5 = system: SK-MEL-5
TK-10 = system: TK-10
U-251 = system: U-251
K562 = system: K562
HL-60 = system: HL-60
MDA-N = system: MDA-N
PC-3 = system: PC-3
T47D = system: T47D

Measured: GI50

CCOC(=O)C(c1ccsc1)P(=O)(OCC)OCC (configuration not stated)
inactive: 786-0 16.3 µM | ACHN 19.6 µM | HOP-62 28.1 µM | HOP-92 24.3 µM | HT-29 15.9 µM | LXFL 529 12 µM | Malme-3M 23.2 µM | NCI-H226 18.4 µM | OVCAR-4 28.7 µM | OVCAR-5 23.1 µM | SF-268 23.2 µM | SF-295 17.3 µM | SK-MEL-5 15.7 µM | TK-10 25.4 µM | U-251 17.9 µM

Clc1ccc(-c2nnc3c4nnc(-c5ccc(Cl)cc5Cl)n4c4ccccc4n23)c(Cl)c1
inactive: 786-0 82.4 µM | ACHN > 100 µM | HOP-62 > 100 µM | HOP-92 92.3 µM | HT-29 > 100 µM | K562 > 100 µM | LXFL 529 > 100 µM | Malme-3M > 100 µM | OVCAR-4 > 100 µM | OVCAR-5 > 100 µM | SF-268 > 100 µM | SF-295 > 100 µM | SK-MEL-5 > 100 µM | TK-10 > 100 µM | U-251 > 100 µM

COC(=O)/C(=N\NC(N)=O)C(C#N)c1ccccc1 (configuration not stated)
inactive: 786-0 > 100 µM | ACHN > 100 µM | HL-60 > 100 µM | HOP-62 > 100 µM | HT-29 > 100 µM | K562 > 100 µM | LXFL 529 > 100 µM | Malme-3M > 100 µM | NCI-H226 > 100 µM | OVCAR-4 > 100 µM | OVCAR-5 > 100 µM | SF-268 > 100 µM | SF-295 > 100 µM | TK-10 > 100 µM | U-251 > 100 µM

COc1ccc(/C=C2\N=C(c3ccccc3)OC2=O)c(OCc2ccccc2)c1
inactive: 786-0 20.1 µM | ACHN > 100 µM | HL-60 40.4 µM | HOP-62 20.5 µM | K562 32.1 µM | LXFL 529 38.2 µM | Malme-3M 39.4 µM | NCI-H226 53.2 µM | OVCAR-4 22.1 µM | OVCAR-5 > 100 µM | SF-268 54.2 µM | SF-295 17.9 µM | SK-MEL-5 19.8 µM

CN(C)CCCn1cnc2ncccc2c1=O
inactive: 786-0 > 100 µM | ACHN > 100 µM | HOP-62 > 100 µM | HOP-92 > 100 µM | HT-29 > 100 µM | K562 > 100 µM | LXFL 529 > 100 µM | Malme-3M > 100 µM | NCI-H226 > 100 µM | OVCAR-4 > 100 µM | OVCAR-5 > 100 µM | SF-268 > 100 µM | SF-295 > 100 µM | SK-MEL-5 > 100 µM | TK-10 > 100 µM | U-251 > 100 µM

CC(Oc1ccc(OCC2CCCCC2)cc1)C(N)=O (configuration not stated)
inactive: 786-0 > 100 µM | ACHN > 100 µM | HL-60 > 100 µM | HT-29 > 100 µM | K562 > 100 µM | LXFL 529 > 100 µM | Malme-3M > 100 µM | NCI-H226 > 100 µM | OVCAR-4 > 100 µM | SF-268 > 100 µM | SF-295 > 100 µM | SK-MEL-5 > 100 µM | TK-10 > 100 µM | U-251 > 100 µM

COC(=O)C(CC(C)C)NC(=O)C(C)NC(=O)C(Cc1ccc(OCc2ccccc2)cc1)NC(=O)C(COCc1ccccc1)NC(=O)OC(C)(C)C (configuration not stated) (Boc-S(Bn)Y(Bn)AL-OMe; configuration not given here)
inactive: 786-0 > 100 µM | ACHN > 100 µM | HL-60 41.2 µM | HOP-62 > 100 µM | HOP-92 > 100 µM | HT-29 > 100 µM | K562 > 100 µM | MDA-N > 100 µM | Malme-3M > 100 µM | NCI-H226 > 100 µM | OVCAR-4 4.3 µM | OVCAR-5 > 100 µM | PC-3 > 100 µM | SF-268 > 100 µM | SF-295 > 100 µM | SK-MEL-5 > 100 µM | T47D > 100 µM | TK-10 > 100 µM | U-251 > 100 µM

Reference: ChEMBL document CHEMBL1201862, “PubChem BioAssay data set” (2004)
